Assay results reported in patent US12435065B2, “Crystalline forms of 1-(1,2-dimethylpropyl)-N-ethyl-5-methyl-N-pyridazin-4-yl-pyrazole-4-carboxamide” (BASF SE, priority 2019, dated 2025).

How the values were obtained:
[1] = Suspension of form A and form B in water, solid analysed by PXRD (phase stability); assay type: physicochemical
Procedure: (§1) Laboratory PXRD patterns were recorded with a PANalytical X'Pert Pro X-ray diffractometer using Cu Kα radiation in reflection geometry (Bragg-Brentano). The sample is placed in a silicon single crystal sample holder of 0.2 mm depth and gently and precisely flattened. The tube voltage is 45 kV and current is 40 mA. The PXRD data are collected at room temperature in the range from 2θ=3.0°-40.0° with increments of 0.017° and measurement time of 20 to 200 s/step.
In a glass tube equipped with a stirring bar 50 mg of form A and 50 mg of form B were suspended in 1 mL water and stirred for 5 days at room temperature. The resulting solid was removed from the mother liquor and analyzed by PXRD.

[2] = Milling of crystalline form B, analysed by PXRD (stability during grinding); assay type: physicochemical; settings: 100 mg milled for 5 minutes with mortar and pestle
Procedure: as §1
100 mg of crystalline form B obtained by the protocol of example 1 was milled for 5 minutes using mortar and pestel. The crystalline mass was analyzed by powder X-ray diffractometry.

Row | SMILES | Crystal form of the solid after stirring in water (PXRD) ([1]; 50 mg form A and 50 mg form B suspended in 1 mL water, stirred 5 days at room temperature) | Thermodynamic stability relative to crystalline form A ([1]; at least at room temperature) | Crystal form after milling (PXRD) [2]
1 | CCN(C(=O)c1cnn(C(C)C(C)C)c1C)c1ccnnc1 (stereo not drawn) [form A, 1-(1,2-dimethylpropyl)-N-ethyl-5-methyl-N-pyridazin-4-yl-pyrazole-4-carboxamide] | complied with the data of crystalline form B |  | 
2 | CCN(C(=O)c1cnn(C(C)C(C)C)c1C)c1ccnnc1 (stereo not drawn) [form B, 1-(1,2-dimethylpropyl)-N-ethyl-5-methyl-N-pyridazin-4-yl-pyrazole-4-carboxamide] |  | thermodynamically more stable than the crystalline form A | form B was identified
